Measured values taken from ChEMBL document CHEMBL1641554, “Synthesis and SAR study of diphenylbutylpiperidines as cell autophagy inducers” (Bioorg Med Chem Lett, 2011).

Test system: H4
Experiment: Induction of autophagy in human H4 cells expressing LC3 using DAPI staining after 4 hrs by fluorescence microscopic analysis
Assay type: functional, cell-based
Details: H4, 4 h

| SMILES | EC50 |
| --- | --- |
| N#CC(CCCN1CCC2(CC1)C(=O)NCN2c1ccccc1)(c1ccccc1)c1ccccc1 | 14.8 µM |
| O=C1NCN(c2ccccc2)C12CCN(CCCN(c1ccccc1)c1ccccc1)CC2 | 24.9 µM |
| O=C1NCN(c2ccccc2)C12CCN(CCC=C(c1ccc(F)cc1)c1ccc(F)cc1)CC2 | 6.2 µM |
| O=C(CCC(c1ccc(F)cc1)c1ccc(F)cc1)N1CCC2(CC1)C(=O)NCN2c1ccccc1 | > 50 µM |
| O=C1NCN(c2ccccc2)C12CCN(CCCC(O)c1ccc(F)cc1)CC2 (stereo unspecified) | > 50 µM |
| O=C1NCN(c2ccccc2)C12CCN(CC/C=C\c1ccc(F)cc1)CC2 | > 50 µM |
| O=C1NCN(c2ccccc2)C12CCN(CCCCC(c1ccc(F)cc1)c1ccc(F)cc1)CC2 | 4.7 µM |
| O=C1NCN(c2ccccc2)C12CCN(CCC(c1ccc(F)cc1)c1ccc(F)cc1)CC2 | 2.1 µM |
| O=C1NCN(c2ccccc2)C12CCN(CCCC(c1ccccc1)c1ccccc1)CC2 | 34.6 µM |
| O=C1NCN(c2ccccc2)C12CCN(CCCC(c1ccc(Cl)cc1)c1ccc(Cl)cc1)CC2 | 4.2 µM |
| O=C1NCN(c2ccccc2)C12CCN(CCCC(c1ccc(C(F)(F)F)cc1)c1ccc(C(F)(F)F)cc1)CC2 | 3.7 µM |
| Cc1ccc(C(CCCN2CCC3(CC2)C(=O)NCN3c2ccccc2)c2ccc(C)cc2)cc1 | 3.1 µM |
| COc1ccc(C(CCCN2CCC3(CC2)C(=O)NCN3c2ccccc2)c2ccc(OC)cc2)cc1 | 4.6 µM |
| OC1(c2ccc(Cl)c(C(F)(F)F)c2)CCN(CCCC(c2ccc(OC(F)(F)F)cc2)c2ccc(OC(F)(F)F)cc2)CC1 | 0.97 µM |
| OC1(c2ccc(Cl)c(C(F)(F)F)c2)CCN(CCCC(c2cccc(F)c2)c2cccc(F)c2)CC1 | 2.2 µM |
| OC1(c2ccc(Cl)c(C(F)(F)F)c2)CCN(CCCC(c2cccc(C(F)(F)F)c2)c2cccc(C(F)(F)F)c2)CC1 | 0.65 µM |
| Cc1cccc(C(CCCN2CCC(O)(c3ccc(Cl)c(C(F)(F)F)c3)CC2)c2cccc(C)c2)c1 | 0.29 µM |
| O=C1NCN(c2ccccc2)C12CCN(C1c3ccccc3Sc3ccccc31)CC2 | > 50 µM |
| OC1(c2ccc(C(F)(F)F)c(Cl)c2)CCN(C2c3ccccc3-c3ccccc32)CC1 | 2.6 µM |
| OC1(c2ccc(C(F)(F)F)c(Cl)c2)CCN(C2c3ccccc3Sc3ccccc32)CC1 | 14.4 µM |
| OC1(c2ccc(C(F)(F)F)c(Cl)c2)CCN(C2c3ccccc3CCc3ccccc32)CC1 | 2.6 µM |
| CN1CCN(CCCC(c2ccc(F)cc2)c2ccc(F)cc2)CC1 | > 50 µM |
| OCCN1CCN(CCCC(c2ccc(F)cc2)c2ccc(F)cc2)CC1 | > 50 µM |

| SMILES | EC50 |
| --- | --- |
| Fc1ccc(C(CCCN2CCN(c3ccc(Cl)cc3)CC2)c2ccc(F)cc2)cc1 | > 50 µM |
| Fc1ccc(C(CCCN2CCOCC2)c2ccc(F)cc2)cc1 | > 50 µM |
| Cc1ccc(C2=CCN(CCCC(c3ccc(F)cc3)c3ccc(F)cc3)CC2)cc1 | > 50 µM |
| Cc1ccc(C2CCN(CCCC(c3ccc(F)cc3)c3ccc(F)cc3)CC2)cc1 | > 50 µM |
| Cc1ccc(C2(O)CCN(CCCC(c3ccc(F)cc3)c3ccc(F)cc3)CC2)cc1 | 6.4 µM |
| CC(=O)OC1(c2ccc(C)cc2)CCN(CCCC(c2ccc(F)cc2)c2ccc(F)cc2)CC1 | 4.4 µM |
| CC(=O)NC1(c2ccc(C)cc2)CCN(CCCC(c2ccc(F)cc2)c2ccc(F)cc2)CC1 | 2.2 µM |
| N#CC1(c2ccccc2)CCN(CCCC(c2ccc(F)cc2)c2ccc(F)cc2)CC1 | 10.5 µM |
| OC1(c2ccc(Cl)c(C(F)(F)F)c2)CCN(CCC=C(c2ccc(F)cc2)c2ccc(F)cc2)CC1 | 4.3 µM |
| O=C(CCC(c1ccc(F)cc1)c1ccc(F)cc1)N1CCC(O)(c2ccc(Cl)c(C(F)(F)F)c2)CC1 | > 50 µM |
| OC1(c2ccc(Cl)c(C(F)(F)F)c2)CCN(CCCCC(c2ccc(F)cc2)c2ccc(F)cc2)CC1 | 2.7 µM |
| OC1(c2ccc(Cl)c(C(F)(F)F)c2)CCN(CCC(c2ccc(F)cc2)c2ccc(F)cc2)CC1 | 4.5 µM |
| OC1(c2ccc(Cl)c(C(F)(F)F)c2)CCN(CCCC(c2ccccc2)c2ccccc2)CC1 | 5.1 µM |
| OC1(c2ccc(Cl)c(C(F)(F)F)c2)CCN(CCCC(c2ccc(Cl)cc2)c2ccc(Cl)cc2)CC1 | 2.4 µM |
| OC1(c2ccc(Cl)c(C(F)(F)F)c2)CCN(CCCC(c2ccc(C(F)(F)F)cc2)c2ccc(C(F)(F)F)cc2)CC1 | 0.28 µM |
| Cc1ccc(C(CCCN2CCC(O)(c3ccc(Cl)c(C(F)(F)F)c3)CC2)c2ccc(C)cc2)cc1 | 0.29 µM |
| COc1ccc(C(CCCN2CCC(O)(c3ccc(Cl)c(C(F)(F)F)c3)CC2)c2ccc(OC)cc2)cc1 | 1.2 µM |
| O=C1NCN(c2ccccc2)C12CCN(C1c3ccccc3-c3ccccc31)CC2 | 7.9 µM |
| O=C1NCN(c2ccccc2)C12CCN(C1c3ccccc3CCc3ccccc31)CC2 | 5.1 µM |
| N#CC(CCCN1CCC(O)(c2ccc(Cl)c(C(F)(F)F)c2)CC1)(c1ccccc1)c1ccccc1 | 3.2 µM |
| O=C1NCN(c2ccccc2)C12CCN(CCCCc1ccc(F)cc1)CC2 | > 50 µM |
| O=C1NCN(c2ccccc2)C12CCN(CCCC(c1ccc(F)cc1)c1ccc(F)cc1)CC2 [FLUSPIRILENE] | 2.4 µM |
| OC1(c2ccc(Cl)c(C(F)(F)F)c2)CCN(CCCC(c2ccc(F)cc2)c2ccc(F)cc2)CC1 [PENFLURIDOL] | 3.2 µM |
